Test results published in ChEMBL document CHEMBL1201862, “PubChem BioAssay data set” (2004).
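Step 1: Grow cells in 96-well plates. Step 2: Expose to compound for 48 hours at 5 concentrations. Step 3: Interpolate endpoints linearly; if unreached, use highest concentration. GI50: concentration for 50% inhibition of growth.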 Activity calls are given as the source filed them. Cut-off read from the data, not from the text of the source: active = GI50 up to about 1.1 µM and inactive = higher. Residues, ends and D or L forms follow the SMILES beside them.

Key:
Assay in all cases: NCI tumour cell line growth inhibition, 48 h
[1] = system: ACHN
[2] = system: CAKI-1
[3] = system: COLO 205
[4] = system: HCT-116
[5] = system: HOP-92
[6] = system: KM12
[7] = system: NCI-H226
[8] = system: NCI-H460
[9] = system: OVCAR-4
[10] = system: OVCAR-5
[11] = system: PC-3
[12] = system: RXF 393
[13] = system: SN12C
[14] = system: SW-620
[15] = system: U-251
[16] = system: UACC-257
[17] = system: UO-31
[18] = system: HOP-62
[19] = system: SK-MEL-28
[20] = system: HCC 2998

Row | SMILES | GI50 [1] | GI50 [2] | GI50 [3] | GI50 [4] | GI50 [5] | GI50 [6] | GI50 [7] | GI50 [8] | GI50 [9] | GI50 [10] | GI50 [11] | GI50 [12] | GI50 [13] | GI50 [14] | GI50 [15] | GI50 [16] | GI50 [17] | GI50 [18] | GI50 [19] | GI50 [20]
1 | CCCc1c(O)nc(Nc2nc3ccccc3[nH]2)[nH]c1=O | > 100 µM (inactive) | > 100 µM (inactive) | > 100 µM (inactive) | > 100 µM (inactive) | > 100 µM (inactive) | > 100 µM (inactive) | > 100 µM (inactive) | > 100 µM (inactive) | > 100 µM (inactive) | > 100 µM (inactive) | > 100 µM (inactive) | > 100 µM (inactive) | > 100 µM (inactive) | > 100 µM (inactive) | > 100 µM (inactive) | > 100 µM (inactive) | > 100 µM (inactive) |  |  | 
2 | CCC(C)C(NC(=O)C(CC(C)C)NC(=O)CNC(=O)C(NC(=O)C1CCCN1C(=O)C(CC(C)C)NC(=O)C(N)Cc1ccccc1)C(C)CC)C(=O)NC(CC(C)C)C(N)=O (centres undefined) (H-FLPIGLIL-NH2; configuration not given here) | > 75 µM (inactive) | > 75 µM (inactive) | > 75 µM (inactive) | > 75 µM (inactive) | > 75 µM (inactive) | > 75 µM (inactive) | > 75 µM (inactive) |  | > 75 µM (inactive) | > 75 µM (inactive) | > 75 µM (inactive) |  | > 75 µM (inactive) | > 75 µM (inactive) | > 75 µM (inactive) | > 75 µM (inactive) | > 75 µM (inactive) | > 75 µM (inactive) | > 75 µM (inactive) | 
3 | O=C(O)COc1c(Cl)cc(Cl)c2cccnc12 | > 100 µM (inactive) | > 100 µM (inactive) | > 100 µM (inactive) | > 100 µM (inactive) | > 100 µM (inactive) | > 100 µM (inactive) | > 100 µM (inactive) | > 100 µM (inactive) | > 100 µM (inactive) | > 100 µM (inactive) | > 100 µM (inactive) | > 100 µM (inactive) | > 100 µM (inactive) | > 100 µM (inactive) | > 100 µM (inactive) | > 100 µM (inactive) | > 100 µM (inactive) | > 100 µM (inactive) | > 100 µM (inactive) | 
4 | Clc1ccc(/N=c2\oc3ccccc3cc2-c2nc3ccccc3[nH]2)c(Cl)c1 | 31 µM (inactive) | > 100 µM (inactive) |  | > 100 µM (inactive) | 43.6 µM (inactive) | > 100 µM (inactive) |  |  | > 100 µM (inactive) | > 100 µM (inactive) | > 100 µM (inactive) | 18.6 µM (inactive) |  | > 100 µM (inactive) |  | > 100 µM (inactive) | > 100 µM (inactive) | 24.3 µM (inactive) |  | 
5 | COC(=O)Cc1c(C2C(CC(=O)OC)c3ccccc3N2C2OC(CO)C(O)C(O)C2O)[nH]c2ccccc12 (centres undefined) |  | > 100 µM (inactive) | > 100 µM (inactive) | > 100 µM (inactive) | > 100 µM (inactive) | > 100 µM (inactive) |  | > 100 µM (inactive) | > 100 µM (inactive) | > 100 µM (inactive) | > 100 µM (inactive) |  | > 100 µM (inactive) | > 100 µM (inactive) | > 100 µM (inactive) | > 100 µM (inactive) | > 100 µM (inactive) | > 100 µM (inactive) | > 100 µM (inactive) | > 100 µM (inactive)
6 | CCOC(=O)C(Cc1cn(C(C)=O)c2ccccc12)P(=O)(OCC)OCC (centres undefined) | > 100 µM (inactive) | > 100 µM (inactive) | > 100 µM (inactive) | > 100 µM (inactive) | > 100 µM (inactive) |  | > 100 µM (inactive) | 55.1 µM (inactive) | > 100 µM (inactive) | > 100 µM (inactive) | 60.8 µM (inactive) |  | > 100 µM (inactive) | > 100 µM (inactive) | > 100 µM (inactive) | > 100 µM (inactive) | > 100 µM (inactive) | > 100 µM (inactive) | > 100 µM (inactive) | > 100 µM (inactive)
7 | NC1=NC(c2ccc(Cl)cc2)N(c2ccc(S(N)(=O)=O)cc2)C(N)=N1 (centres undefined) | > 100 µM (inactive) | > 100 µM (inactive) | > 100 µM (inactive) | > 100 µM (inactive) | > 100 µM (inactive) | > 100 µM (inactive) | > 100 µM (inactive) | > 100 µM (inactive) | > 100 µM (inactive) | > 100 µM (inactive) | > 100 µM (inactive) | > 100 µM (inactive) | > 100 µM (inactive) | > 100 µM (inactive) | > 100 µM (inactive) | > 100 µM (inactive) | > 100 µM (inactive) | > 100 µM (inactive) | > 100 µM (inactive) | 
8 | CCOC(=O)c1cc(Sc2ccc(N)c(C(=O)OCC)c2)ccc1N | 10.4 µM (inactive) | 7.69 µM (inactive) | 60.8 µM (inactive) | > 100 µM (inactive) | 58.2 µM (inactive) | 5.62 µM (inactive) | 16.7 µM (inactive) | 78.2 µM (inactive) | 17.8 µM (inactive) | 12.1 µM (inactive) | 11.4 µM (inactive) | 11.5 µM (inactive) | 18 µM (inactive) | > 100 µM (inactive) | 27.9 µM (inactive) | > 100 µM (inactive) |  | 14.8 µM (inactive) | > 100 µM (inactive) | 
9 | CCOc1ccccc1NC(=O)CC1Sc2ccccc2NC1=O (centres undefined) | 75.9 µM (inactive) | 95.7 µM (inactive) | 33.3 µM (inactive) | > 100 µM (inactive) | 18.2 µM (inactive) | 38.1 µM (inactive) | > 100 µM (inactive) | 44.1 µM (inactive) | 68.9 µM (inactive) | > 100 µM (inactive) |  | > 100 µM (inactive) | > 100 µM (inactive) | 49.2 µM (inactive) | 79.4 µM (inactive) | > 100 µM (inactive) | 61.1 µM (inactive) | 73.3 µM (inactive) | > 100 µM (inactive) | > 100 µM (inactive)
10 | CCc1ccccc1NC(=O)C1=C(C)NC(C)=C(C(=O)Nc2ccccc2CC)C1c1ccccc1Cl | 47.4 µM (inactive) | > 100 µM (inactive) | > 100 µM (inactive) | > 100 µM (inactive) | 57.1 µM (inactive) | > 100 µM (inactive) | > 100 µM (inactive) | > 100 µM (inactive) | > 100 µM (inactive) | > 100 µM (inactive) |  | > 100 µM (inactive) | > 100 µM (inactive) | > 100 µM (inactive) | > 100 µM (inactive) | > 100 µM (inactive) | 35.5 µM (inactive) | > 100 µM (inactive) | > 100 µM (inactive) | > 100 µM (inactive)
11 | O=C(C#CP(=O)(O)c1ccccc1)c1ccccc1 | > 100 µM (inactive) | > 100 µM (inactive) | > 100 µM (inactive) | > 100 µM (inactive) | > 100 µM (inactive) | > 100 µM (inactive) |  | > 100 µM (inactive) | > 100 µM (inactive) | > 100 µM (inactive) | > 100 µM (inactive) |  | > 100 µM (inactive) | > 100 µM (inactive) | > 100 µM (inactive) | > 100 µM (inactive) | < 0.01 µM (active) | > 100 µM (inactive) | > 100 µM (inactive) | > 100 µM (inactive)
12 | NC(=O)c1ncn(CCN2CCN(C(=O)NCCCCCCNC(=O)N3CCN(CCn4cnc(C(N)=O)c4N)CC3)CC2)c1N | > 100 µM (inactive) | > 100 µM (inactive) | > 100 µM (inactive) | > 100 µM (inactive) | > 100 µM (inactive) | > 100 µM (inactive) | > 100 µM (inactive) | > 100 µM (inactive) | > 100 µM (inactive) | > 100 µM (inactive) |  | > 100 µM (inactive) | > 100 µM (inactive) | > 100 µM (inactive) | > 100 µM (inactive) | > 100 µM (inactive) | > 100 µM (inactive) | > 100 µM (inactive) | > 100 µM (inactive) | > 100 µM (inactive)
13 | Cc1cc(Cl)ccc1NC(=O)CC1SC(Nc2ccccc2Cl)=NC1=O (centres undefined) | 43.3 µM (inactive) | 41.7 µM (inactive) | 19.2 µM (inactive) | 30.3 µM (inactive) | 48.9 µM (inactive) | 33.3 µM (inactive) | 24.2 µM (inactive) | 51.3 µM (inactive) | 41.3 µM (inactive) | > 100 µM (inactive) |  | 26.1 µM (inactive) | 33.8 µM (inactive) | 37.2 µM (inactive) | 26.4 µM (inactive) | 50.2 µM (inactive) | 35.5 µM (inactive) | > 100 µM (inactive) | 66.2 µM (inactive) | 52.2 µM (inactive)
14 | C[n+]1ccc2[nH]c3ccccc3c2c1 | > 100 µM (inactive) | > 100 µM (inactive) | > 100 µM (inactive) | 48.6 µM (inactive) | > 100 µM (inactive) | 77.1 µM (inactive) | 61 µM (inactive) | > 77.4 µM (inactive) | > 100 µM (inactive) | > 58.3 µM (inactive) |  | > 100 µM (inactive) | > 100 µM (inactive) | > 86.3 µM (inactive) | > 100 µM (inactive) | > 100 µM (inactive) | > 100 µM (inactive) | > 52.8 µM (inactive) | > 100 µM (inactive) | > 100 µM (inactive)
15 | C=C(CCOC)CCC1CCCCC(=C)[C@H]1OC(C)=O (some centres undefined) | > 100 µM (inactive) | > 100 µM (inactive) | > 100 µM (inactive) | > 100 µM (inactive) | > 100 µM (inactive) | > 100 µM (inactive) | 97.3 µM (inactive) | > 100 µM (inactive) | > 100 µM (inactive) | > 100 µM (inactive) | > 100 µM (inactive) |  | > 100 µM (inactive) | > 100 µM (inactive) | > 100 µM (inactive) | > 100 µM (inactive) | > 100 µM (inactive) | > 100 µM (inactive) | > 100 µM (inactive) | 
